row,melting point,Compound
1,164 to 167 °C,CC1CN(c2cc3ccccc3c(=O)[nH]2)CCN1 (stereo not shown)
2,> 240 °C (dec.),CN1CCC(c2cc3ncccc3c(=O)[nH]2)CC1
3,202 to 204 °C,Cc1c(C2CCN(C)CC2)[nH]c(=O)c2ccccc12
4,239 to 241 °C,Cc1ccc2cc(C3CCN(C)CC3)[nH]c(=O)c2c1
5,284 to 286 °C,CN1CCC(c2cc3ccc(O)cc3c(=O)[nH]2)CC1.Cl
6,242 to 243 °C (dec.),Cc1ccc2c(=O)[nH]c(N3CCN(C)CC3)cc2c1
7,> 270 °C,Br.O=c1[nH]c(C2CCNCC2)cc2ccccc12
8,208 to 209 °C (dec.),"CCCN1CCN(c2cc3ccccc3c(=O)[nH]2)CC1 [Example 7, 3-(4-propylpiperazine-1-yl)-2H-isoquinolin-1-one]"
9,257 to 259 °C (dec.),"CS(=O)(=O)N1CCN(c2cc3ccccc3c(=O)[nH]2)CC1 [Example 8, 3-(4-methanesulfonylpiperazin-1-yl)-2H-isoquinolin-1-one]"
10,191 to 192 °C (dec.),"CCOC(=O)N1CCN(c2cc3ccccc3c(=O)[nH]2)CC1 [Example 9, 3-(4-ethoxycarbonylpiperazin-1-yl)-2H-isoquinolin-1-one]"
11,227 to 228 °C (dec.),"CN(C)C1CCN(c2cc3ccc(Br)cc3c(=O)[nH]2)CC1 [Example 31, 7-bromo-3-(4-dimethylaminopiperidin-1-yl)-2H-isoquinolin-1-one]"
12,214 to 215 °C (dec.),"CN(C)C1CCN(c2cc3c(Br)cccc3c(=O)[nH]2)CC1 [Example 32, 5-bromo-3-(4-dimethylaminopiperidin-1-yl)-2H-isoquinolin-1-one]"
13,236 to 237 °C (dec.),"Cc1ccc2c(=O)[nH]c(N3CCN(CCO)CC3)cc2c1 [Example 35, 3-(4-(2-hydroxyethyl)piperazin-1-yl)-6-methyl-2H-isoquinolin-1-one]"
14,202 to 203 °C (dec.),"Cc1cccc2c(=O)[nH]c(N3CCN(CCCCN4CCN(C)CC4)CC3)cc12 [Example 75, 5-methyl-3-(4-(4-(4-methylpiperazin-1-yl)butyl)piperazin-1-yl)-2H-isoquinolin-1-one]"
15,211 to 212 °C (dec.),"O=c1[nH]c(N2CCN(CCCCN3CCCCC3)CC2)cc2ccc(Br)cc12 [Example 76, 7-bromo-3-{4-[4-(piperidin-1-yl)butyl]piperazin-1-yl}-2H-isoquinolin-1-one]"
16,172 to 173 °C (dec.),"O=c1[nH]c(N2CCN(CCCCN3CCCCC3)CC2)cc2c(Cl)cccc12 [Example 77, 5-chloro-3-{4-[4-(piperidin-1-yl)butyl]piperazin-1-yl}-2H-isoquinolin-1-one]"

row,melting point,Compound
1,165 to 166 °C (dec.),"O=c1[nH]c(N2CCN(CCCCN3CCCCC3)CC2)cc2c(Br)cccc12 [Example 78, 5-bromo-3-{4-[4-(piperidin-1-yl)butyl]piperazin-1-yl}-2H-isoquinolin-1-one]"
2,170 to 172 °C,"CN1CCN(C(=O)c2cc3ccccc3c(=O)[nH]2)CC1 [Example 83, 3-((4-methylpiperazin-1-yl)carbonyl)-2H-isoquinolin-1-one]"
3,254 to 256 °C,"CN1CCC(c2[nH]c(=O)c3ccccc3c2-c2ccc(Cl)cc2)CC1 [Example 100, 4-(4-chlorophenyl)-3-(1-methylpiperidin-4-yl)-2H-isoquinolin-1-one]"
4,232 to 233 °C (dec.),"CN(C)C1CCN(N2CC(=O)c3c(ccc4ccccc34)C2)CC1 [Example 115, 3-(4-dimethylaminopiperidin-1-yl)-2H-benz[f]isoquinolin-1-one]"
5,169 to 171 °C,"CN1CCN(c2cc3ccccc3c(=O)[nH]2)[C@H](CO)C1 [Example 152, (S)-3-(2-hydroxymethyl-4-methylpiperazin-1-yl)-2H-isoquinolin-1-one]"
6,105 to 109 °C,"CCOC(=O)C1CN(c2cc3ccccc3c(=O)[nH]2)CCN1C (stereo not shown) [Example 154, 3-(3-ethoxycarbonyl-4-methylpiperazin-1-yl)-2H-isoquinolin-1-one]"
7,139 to 141 °C,"CN1CCC(C2Cc3ccccc3C(=O)N2)CC1 (stereo not shown) [Example 158, 3-(1-methylpiperidin-4-yl)-3,4-dihydro-2H-isoquinolin-1-one]"
8,244 to 246 °C,"Cc1ccc(-c2c(C3CCN(C)CC3)[nH]c(=O)c3ccccc23)cc1 [Example 163, 4-(4-methylphenyl)-3-(1-methylpiperidin-4-yl)-2H-isoquinolin-1-one]"
9,269 to 271 °C,"CN1CCC(c2[nH]c(=O)c3ccccc3c2-c2ccc(F)cc2)CC1 [Example 164, 4-(4-fluorophenyl)-3-(1-methylpiperidin-4-yl)-2H-isoquinolin-1-one]"
10,214 to 216 °C,"Cc1cccc(-c2c(C3CCN(C)CC3)[nH]c(=O)c3ccccc23)c1 [Example 168, 4-(3-methylphenyl)-3-(1-methylpiperidin-4-yl)-2H-isoquinolin-1-one]"
11,249 to 251 °C,"Cc1ccccc1-c1c(C2CCN(C)CC2)[nH]c(=O)c2ccccc12 [Example 169, 4-(2-methylphenyl)-3-(1-methylpiperidin-4-yl)-2H-isoquinolin-1-one]"
12,216 to 218 °C,"CN1CCC(c2cc3c(N(C)C)cccc3c(=O)[nH]2)CC1 [Example 180, 5-(dimethylamino)-3-(1-methylpiperidin-4-yl)-2H-isoquinolin-1-one]"
13,247 to 249 °C,"CN1CCC(c2[nH]c(=O)c3ccccc3c2-c2ccccc2F)CC1 [Example 182, 4-(2-fluorophenyl)-3-(1-methylpiperidin-4-yl)-2H-isoquinolin-1-one]"
14,110 to 112 °C,"COCOc1cccc2c(=O)[nH]c(CCCN(C)C)cc12 [Example 185, 5-methoxymethyloxy-3-(3-dimethylaminopropyl)-2H-isoquinolin-1-one]"
15,109 to 111 °C,"COCOc1cccc2c(=O)[nH]c(CCCCN(C)C)cc12 [Example 187, 5-methoxymethyloxy-3-(4-dimethylaminobutyl)-2H-isoquinolin-1-one]"
16,176 to 178 °C,"O=c1[nH]c(C2CCCN(Cc3ccccc3)C2)cc2ccccc12 (stereo not shown) [Example 191, 3-(1-benzylpiperidin-3-yl)-2H-isoquinolin-1-one]"

# Second part, the molecule before the results:
row,Compound,melting point
1,Cc1cccc2c(=O)[nH]c(CC3CN4CCC3CC4)nc12 (stereo not shown),187 to 188 °C (dec.)
2,CC1CN(c2cc3ccccc3c(=O)[nH]2)CC(C)N1 (stereo not shown),208 to 210 °C
3,CN1CCCC(c2cc3ccccc3c(=O)[nH]2)C1 (stereo not shown),155 to 156 °C
4,Cc1ccc2c(=O)[nH]c(C3CCN(C)CC3)cc2c1,236 to 238 °C
5,Cc1cccc2cc(C3CCN(C)CC3)[nH]c(=O)c12,200 to 202 °C
6,Cc1cccc2cc(N3CCN(C)CC3)[nH]c(=O)c12,224 to 225 °C (dec.)
7,Br.O=c1[nH]c(C2CCNCC2)c(-c2ccccc2)c2ccccc12,> 270 °C
8,"CN(C)C1CCN(c2cc3ccccc3c(=O)[nH]2)C1 (stereo not shown) [Example 2, 3-(3-dimethylaminopyrrolidine-1-yl)-2H-isoquinolin-1-one]",233 to 234 °C (dec.)
9,"CN1CCCN(c2cc3ccccc3c(=O)[nH]2)CC1 [Example 10, 3-(4-methylhomopiperazin-1-yl)-2H-isoquinolin-1-one]",171 to 172 °C (dec.)
10,"O=c1[nH]c(N2CCN(CCO)CC2)cc2c(F)cccc12 [Example 33, 5-fluoro-3-(4-(2-hydroxyethyl)piperazin-1-yl)-2H-isoquinolin-1-one]",207 to 208 °C (dec.)
11,"Cc1cccc2cc(N3CCN(CCO)CC3)[nH]c(=O)c12 [Example 41, 3-[4-(2-hydroxyethyl)piperazin-1-yl]-8-methyl-2H-isoquinolin-1-one]",209 to 210 °C (dec.)
12,"COc1ccc(-c2c(C3CCN(C)CC3)[nH]c(=O)c3ccccc23)cc1 [Example 99, 4-(4-methoxyphenyl)-3-(1-methylpiperidin-4-yl)-2H-isoquinolin-1-one]",209 to 211 °C
13,"CN1CCN(N2CC(=O)c3c(ccc4ccccc34)C2)CC1 [Example 114, 3-(4-methylpiperazin-1-yl)-2H-benz[f]isoquinolin-1-one]",253 to 254 °C (dec.)
14,"Cc1cccc2c(=O)[nH]c(C3CCC(N(C)C)CC3)nc12 (stereo not shown) [Example 137, 8-methyl-2-(4-dimethylaminocyclohexan-1-yl)-3H-quinazolin-4-one]",181 to 183 °C (dec.)
15,"CN(C)C1CCC(c2cc3ccccc3c(=O)[nH]2)CC1 (stereo not shown) [Example 147, 3-(4-(dimethylamino)cyclohexan-1-yl)-2H-isoquinolin-1-one]",256 to 258 °C
16,"CN1CCN(CCCc2cc3ccccc3c(=O)[nH]2)CC1 [Example 148, 3-(3-(4-methylpiperazin-1-yl)propyl)-2H-isoquinolin-1-one]",120 to 122 °C
17,"CN1CCN(c2cc3ccccc3c(=O)[nH]2)[C@@H](CO)C1 [Example 151, (R)-3-(2-hydroxymethyl-4-methylpiperazin-1-yl)-2H-isoquinolin-1-one]",172 to 174 °C
18,"COc1ccccc1-c1c(C2CCN(C)CC2)[nH]c(=O)c2ccccc12 [Example 167, 4-(2-methoxyphenyl)-3-(1-methylpiperidin-4-yl)-2H-isoquinolin-1-one]",153 to 155 °C
19,"COc1cccc(-c2c(C3CCN(C)CC3)[nH]c(=O)c3ccccc23)c1 [Example 170, 4-(3-methoxyphenyl)-3-(1-methylpiperidin-4-yl)-2H-isoquinolin-1-one]",181 to 183 °C
20,"COCOc1cccc2c(=O)[nH]c(C3CCN(C)CC3)cc12 [Example 171, 5-methoxymethyloxy-3-(1-methylpiperidin-4-yl)-2H-isoquinolin-1-one]",194 to 196 °C
21,"CN1CCC=C(c2cc3ccccc3c(=O)[nH]2)C1 [Example 193, 3-(1-methyl-1,2,3,6-tetrahydropyridin-5-yl)-2H-isoquinolin-1-one]",214 to 216 °C
22,"O=c1[nH]c(N2CCNC(CO)C2)cc2ccccc12 (stereo not shown) [Example 194, 3-(3-hydroxymethylpiperazin-1-yl)-2H-isoquinolin-1-one]",> 120 °C (dec.)
23,"CCCN1CCN(c2cc3ccccc3c(=O)[nH]2)CC1CO (stereo not shown) [Example 196, 3-(3-hydroxymethyl-4-propylpiperazin-1-yl)-2H-isoquinolin-1-one]",152 to 154 °C

# Source: patent US20040176361A1, “Fused heterocyclic compound and medicinal use thereof” (priority 2001, published 2004)
